Residues, ends and D or L forms follow the SMILES beside them.
Molecular target: T1, natural hair keratin (Hair Keratin KRTHB1 Basic, SEQ ID NO: 7) (Homo sapiens, UniProt Q14533)
T1 sequence (Q14533 304-505): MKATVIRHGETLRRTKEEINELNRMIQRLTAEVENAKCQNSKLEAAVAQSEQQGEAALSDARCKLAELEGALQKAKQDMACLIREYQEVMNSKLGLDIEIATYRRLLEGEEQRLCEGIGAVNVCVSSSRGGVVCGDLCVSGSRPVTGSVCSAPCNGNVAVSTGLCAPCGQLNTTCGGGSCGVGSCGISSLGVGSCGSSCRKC
Assay: SPRi binding affinity of peptides to keratin printed on a sensor chip
Conditions: for kon / koff: SPRi, 4° C., kinetic analysis with BIAevaluation 4.1; for kon: read-out: Ka (association rate constant); for koff: read-out: Kd (dissociation rate constant); for Affinity ranking: rank by KD, the lower the KD the more affinity to hair keratin
Protocol: Affinity of Aquis peptides with natural hair keratin were tested. A third peptide was also tested with the sequence GGVCGPSPPCITT (SEQ ID NO: 6) known as KP developed by Khairpep as a control. KP has been shown in previous patent and publications to penetrate the hair shaft, bind to keratin and improve hair mechanical properties. Various concentrations of Keratin dissolved in water were manually printed onto the bare gold coated (thickness 47 nm) PlexArray Nanocapture Sensor Chip (Plexera Bioscience, Seattle, WA, US) at 40% humidity. Each concentration was printed in replicate, and each spot contained 0.2 microliters of […] solution. The chip was incubated in 80% humidity at 4° C. for overnight, and rinsed with 10×PBST for 10 min, 1×PBST for 10 min, and deionized water twice for 10 min. The chip was then blocked with 5% (w/v) non-fat milk in water overnight, and washed with 10×PBST for 10 min, 1×PBST for 10 min, and deionized water twice for 10 min before being dried under a stream of nitrogen prior to use. SPRi measurements were performed with PlexAray HT (Plexera Bioscience, Seattle, WA, US). Collimated light (660 nm) passes through the coupling prism, reflects off the SPR-active gold surface, and is received by the CCD camera. Buffers and samples were injected by a non-pulsatile piston pump into the 30 uL flowcell that was mounted on the coupling prim. Each measurement cycle contained four steps: washing with PBST running buffer at a constant rate of 2 uL/s to obtain a stable baseline, sample injection at 5 uL/s for binding, surface washing with PBST at 2 uL/s for 300 s, and regeneration with 0.5% (v/v) H3PO4 at 2 uL/s for 300 s. All the measurements were performed at 4° C. The signal changes after binding and washing (in AU) are recorded as the assay value. Selected protein-grafted regions in the SPR images were analyzed, and the average reflectivity variations of the chosen areas were plotted as a function of time. Real-time binding signals were recorded and analyzed by Data Analysis Module (DAM, Plexera Bioscience, Seattle, WA, US). Kinetic analysis was performed using BIAevaluation 4.1 software (Biacore, Inc.).
FIG. 1 to 3 show the binding affinity to keratin for each peptide tested. The lower the KD value is, the more affinity the peptide has to hair keratin.

Compound | kon | koff | affinity to hair keratin compared with the other peptides (comparison of Figures 1-3, in words) | Affinity ranking
C[C@@H](O)[C@H](NC(=O)[C@H](CO)NC(=O)[C@H](CS)NC(=O)[C@H](CO)NC(=O)[C@@H]1CCCN1C(=O)[C@H](Cc1ccccc1)NC(=O)CNC(=O)[C@H](CS)NC(=O)[C@@H](N)Cc1ccccc1)C(=O)N[C@@H](CO)C(=O)NCC(=O)O [Aquis 1, FCGFPSCSTSG] (H-FCGFPSCSTSG-OH; N-terminus and C-terminus assumed) | 1310 M⁻¹ s⁻¹ | 0.000478 s⁻¹ | has the most affinity to hair keratin | 1
CC(C)C[C@H](NC(=O)[C@H](CCC(N)=O)NC(=O)[C@H](CS)NC(=O)[C@H](CS)NC(=O)[C@H](CO)NC(=O)[C@@H]1CCCN1C(=O)[C@@H]1CCCN1C(=O)[C@@H](NC(=O)[C@@H](N)CS)[C@@H](C)O)C(=O)N[C@@H](Cc1c[nH]cn1)C(=O)N[C@@H](Cc1c[nH]cn1)C(=O)N[C@@H](C)C(=O)O [Aquis 2, CTPPSCCQLHHA] (H-CTPPSCCQLHHA-OH; N-terminus and C-terminus assumed) | 8240 M⁻¹ s⁻¹ | 0.0206 s⁻¹ | – | 3
CC[C@H](C)[C@H](NC(=O)[C@H](CS)NC(=O)[C@@H]1CCCN1C(=O)[C@@H]1CCCN1C(=O)[C@H](CO)NC(=O)[C@@H]1CCCN1C(=O)CNC(=O)[C@H](CS)NC(=O)[C@@H](NC(=O)CNC(=O)CN)C(C)C)C(=O)N[C@H](C(=O)N[C@H](C(=O)O)[C@@H](C)O)[C@@H](C)O [KP, GGVCGPSPPCITT, reference compound] (H-GGVCGPSPPCITT-OH; N-terminus and C-terminus assumed) | 8500 M⁻¹ s⁻¹ | 0.000692 s⁻¹ | – | 2

From US12357556B2, “Composition for improving hair health” (K18, Inc., priority 2018, dated 2025)
